{
  "source": "ChEMBL document CHEMBL6115031",
  "about": "“Structure-Based Optimization of Moracin M as Potent and Selective PDE4 Inhibitors with Antipsoriasis Effects” (J Med Chem, 2025)",
  "key": {"[1]": {"test_system": "Mus musculus", "assay": "Anti-psoriasis effect in IMQ-induced female BALB/c mouse assessed as decrease in erythema scores at 20 mg/kg administered topically as 0.3 % ointment pretreated with IMQ for 6 hrs followed by compound addition once daily for 7 days", "format": "functional, organism-based", "settings": "time 7.0 day"}, "[2]": {"test_system": "RAW264.7", "assay": "Cytotoxicity against mouse RAW264.7 cells assessed as reduction in cell viability at 5 to 80 uM incubated for 24 hrs by CCK-8 assay", "format": "toxicity, cell-based", "settings": "raw264.7, 24 h, dose 5-80 µM"}, "[3]": {"test_system": "Mus musculus", "assay": "Anti-psoriasis effect in IMQ-induced female BALB/c mouse assessed as reduction in skin thickness at 20 mg/kg administered topically as 0.3 % ointment pretreated with IMQ for 6 hrs followed by compound addition once daily for 7 days", "format": "functional, organism-based", "settings": "time 7.0 day"}, "[4]": {"test_system": "Mus musculus", "assay": "Anti-psoriasis effect in IMQ-induced female BALB/c mouse assessed as reduction in severity of skin erythema at 20 mg/kg administered topically as 0.3 % ointment pretreated with IMQ for 6 hrs followed by compound addition once daily for 7 days", "format": "functional, organism-based", "settings": "time 7.0 day"}, "[5]": {"test_system": "HaCaT", "assay": "Anti-inflammatory activity in M5- stimulated human HaCaT cells assessed as reduction in TNF-alpha mRNA level incubated for 24 hrs by q-PCR analysis", "format": "functional, cell-based", "settings": "dose 5-20 µM"}, "[6]": {"test_system": "Mus musculus", "assay": "Anti-inflammatory activity in IMQ-induced psoriasis in female BALB/c mouse assessed as reduction in CXCL-2 mRNA level at 20 mg/kg administered topically as 0.3 % ointment pretreated with IMQ for 6 hrs followed by compound addition once daily for 7 days by q-PCR analysis", "format": "functional, organism-based", "settings": "time 7.0 day"}, "[7]": {"test_system": "Mus musculus", "assay": "Anti-psoriasis effect in IMQ-induced female BALB/c mouse assessed as reduction in psoriasis area at 20 mg/kg administered topically as 0.3 % ointment pretreated with IMQ for 6 hrs followed by compound addition once daily for 7 days", "format": "functional, organism-based", "settings": "time 7.0 day"}, "[8]": {"test_system": "HaCaT", "assay": "Inhibition of CREB phosphorylation in human HaCaT cells assessed as increase in pCREB/CREB ratio at 20 uM incubated for 2 hrs by Western blotting analysis", "format": "cell-based"}, "[9]": {"test_system": "Mus musculus", "assay": "Anti-psoriasis effect in IMQ-induced female BALB/c mouse assessed as decrease in skin scales at 20 mg/kg administered topically as 0.3 % ointment pretreated with IMQ for 6 hrs followed by compound addition once daily for 7 days", "format": "functional, organism-based", "settings": "time 7.0 day"}, "[10]": {"test_system": "HaCaT", "assay": "Anti-psoriasis effect in M5-stimulated human HaCaT cells assessed as inhibition of cell proliferation at 20 uM pretreated with M5 followed by compound addition and measured after 24 hrs", "format": "functional, cell-based"}, "[11]": {"molecular_target": "High affinity 3',5'-cyclic-AMP phosphodiesterase 7A (Homo sapiens, UniProt Q13946)", "sequence (Q13946 whole entry, the tested form may be a part)": "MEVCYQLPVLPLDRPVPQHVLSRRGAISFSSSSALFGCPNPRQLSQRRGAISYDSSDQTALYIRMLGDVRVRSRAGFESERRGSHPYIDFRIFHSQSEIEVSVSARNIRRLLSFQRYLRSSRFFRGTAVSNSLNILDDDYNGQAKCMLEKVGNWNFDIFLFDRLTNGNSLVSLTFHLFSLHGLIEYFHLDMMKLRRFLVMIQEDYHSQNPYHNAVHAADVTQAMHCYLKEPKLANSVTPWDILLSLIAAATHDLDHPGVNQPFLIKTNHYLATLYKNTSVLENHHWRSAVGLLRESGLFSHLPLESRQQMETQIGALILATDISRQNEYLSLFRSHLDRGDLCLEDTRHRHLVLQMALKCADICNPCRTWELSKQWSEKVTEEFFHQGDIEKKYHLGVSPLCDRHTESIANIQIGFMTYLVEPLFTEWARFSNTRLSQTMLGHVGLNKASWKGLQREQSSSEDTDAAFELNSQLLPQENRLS", "assay": "Inhibition of PDE7A1 (130 to 482 residues) (unknown origin) extracted from Escherichia coli BL21 cells using 3H-cAMP/3H-cGMP as substrate preincubated with compound for 15 mins followed by substrate addition by liquid scintillation counter"}, "[12]": {"test_system": "Mus musculus", "assay": "Anti-psoriasis effect in IMQ-induced female BALB/c mouse assessed as change in weight of spleen at 20 mg/kg administered topically as 0.3 % ointment pretreated with IMQ for 6 hrs followed by compound addition once daily for 7 days by H and E staining based analysis", "format": "functional, organism-based", "settings": "time 7.0 day"}, "[13]": {"assay": "Metabolic stability in rat liver microsomes assessed as half life at 1 uM incubated upto 60 mins in presence of NADPH by LC-MS/MS analysis", "format": "ADME, Microsome"}, "[14]": {"test_system": "HaCaT", "assay": "Anti-psoriasis effect in M5-stimulated human HaCaT cells assessed as upregulation of K1 protein expression at 20 uM pretreated with M5 followed by compound addition and measured after 24 hrs by Western blotting analysis", "format": "functional, cell-based"}, "[15]": {"molecular_target": "cGMP-specific 3',5'-cyclic phosphodiesterase (Homo sapiens, UniProt O76074)", "assay": "Inhibition of PDE5A1 (535 to 860 residues) (unknown origin) extracted from Escherichia coli BL21 cells using 3H-cAMP/3H-cGMP as substrate preincubated with compound for 15 mins followed by substrate addition by liquid scintillation counter"}, "[16]": {"test_system": "HaCaT", "assay": "Anti-inflammatory activity in M5- stimulated human HaCaT cells assessed as reduction in IL-17 mRNA level incubated for 24 hrs by q-PCR analysis", "format": "functional, cell-based", "settings": "dose 5-20 µM"}, "[17]": {"test_system": "Mus musculus", "assay": "Anti-psoriasis effect in IMQ-induced female BALB/c mouse assessed as change in body weight at 20 mg/kg administered topically as 0.3 % ointment pretreated with IMQ for 6 hrs followed by compound addition once daily for 7 days", "format": "functional, organism-based", "settings": "time 7.0 day"}, "[18]": {"test_system": "Mus musculus", "assay": "Anti-psoriasis effect in IMQ-induced female BALB/c mouse model assessed as reduction in fibroblast proliferation at 20 mg/kg administered topically as 0.3 % ointment pretreated with IMQ for 6 hrs followed by compound addition once daily for 7 days by H and E staining based analysis", "format": "functional, organism-based", "settings": "time 7.0 day"}, "[19]": {"test_system": "Mus musculus", "assay": "Anti-inflammatory activity in IMQ-induced psoriasis in female BALB/c mouse assessed as reduction in CCL-20 mRNA level at 20 mg/kg administered topically as 0.3 % ointment pretreated with IMQ for 6 hrs followed by compound addition once daily for 7 days by q-PCR analysis", "format": "functional, organism-based", "settings": "time 7.0 day"}, "[20]": {"test_system": "HaCaT", "assay": "Anti-psoriasis effect in M5-stimulated human HaCaT cells assessed as upregulation of K10 protein expression at 20 uM pretreated with M5 followed by compound addition and measured after 24 hrs by Western blotting analysis", "format": "functional, cell-based"}},
  "note": "pIC50: −log10 of the molar value. Calls of active or inactive are those of the source. The rule behind the calls is not given here.",
  "data": [
    {"smiles": "COC(=O)[C@H]1C[C@@H](Oc2c(O)ccc3cc(-c4ccc(OC(F)F)c(OCC5CC5)c4)oc23)CN1", "values": [
      {"measurement": "Activity", "setting": "[1]", "value": "Active"},
      {"measurement": "Activity", "setting": "[2]", "value": "Non-toxic"},
      {"measurement": "Activity", "setting": "[3]", "value": "Active"},
      {"measurement": "Activity", "setting": "[4]", "value": "Active"},
      {"measurement": "Activity", "setting": "[5]", "value": "Dose-dependent-effect"},
      {"measurement": "Activity", "setting": "[6]", "value": "Active"},
      {"measurement": "Activity", "setting": "[7]", "value": "Active"},
      {"measurement": "inhibition", "setting": "[8]", "value": "Active"},
      {"measurement": "Activity", "setting": "[9]", "value": "Active"},
      {"measurement": "Activity", "setting": "[10]", "value": "Active"},
      {"measurement": "pIC50", "setting": "[11]", "value": 5.23},
      {"measurement": "Activity", "setting": "[12]", "value": "Active"},
      {"measurement": "half-life at 1 µM", "setting": "[13]", "value": 22.9, "unit": "min"},
      {"measurement": "Activity", "setting": "[14]", "value": "Active"},
      {"measurement": "pIC50", "setting": "[15]", "value": 5.76},
      {"measurement": "Activity", "setting": "[16]", "value": "Dose-dependent-effect"},
      {"measurement": "Activity", "setting": "[17]", "value": "Active"},
      {"measurement": "Activity", "setting": "[18]", "value": "Active"},
      {"measurement": "Activity", "setting": "[19]", "value": "Active"},
      {"measurement": "Activity", "setting": "[20]", "value": "Active"}
    ]}
  ]
}
